# According to US10266806B2, “Stem cell-derived hepatocytes in co-culture and uses thereof” (Colorado State University Research Foundation, priority 2014, dated 2019):
# “Also recorded” adds a separate entry of the source. Like-named read-outs stand apart in the source and are kept apart here.
# Experiments:
# CYP2C9 [1] = conditions: rifampin 25 μM or phenobarbital 1 mM, 4 days
# CYP2C9 [2] = conditions: rifampin 25 μM or phenobarbital 1 mM, 4 days; remark: listed apart in the source
# CYP3A4 = conditions: human
# [3] = cited from earlier work
# iMPCCs = assay: Drug toxicity studies: iMPCCs treated for 8 days with multiple doses; conditions: increasing doses
# CYP1A2 = CYP1A2 induction in iMPCCs (7-ethoxyresorufin O-dealkylation); format: cell-based, human
# iHeps in iMPCCs [4] = system: iHeps in iMPCCs
# [5] = system: primary human hepatocytes in MPCCs; conditions: (ref 19); cited from earlier work
# [6] = negative number: withdrawn from the market; higher positive numbers: greater DILI concern; cited from earlier work
# iHeps in iMPCCs [7] = assay: Drug toxicity screening in iMPCCs (albumin, ATP, urea; binary decision and TC50)
compound,measurement,setting,value
CCC1(c2ccccc2)C(=O)NC(=O)NC1=O [phenobarbital],CYP2C9 functional activity induction in iMPCCs,CYP2C9 [1],significant increases; also recorded: induced
same,CYP2C9 gene expression induction in iMPCCs,CYP2C9 [1],inducible; also recorded: induced
same,CYP2C9 induction response in iCCs,CYP2C9 [2],induced functional activity; also recorded: severely blunted
same,fold induction of CYP3A4 transcripts in iMPCCs relative to PHH-MPCCs,CYP3A4,60-130%
same,induction in CYP3A4 functions in iMPCCs relative to PHH-MPCCs,CYP3A4,44-79%
COc1ccc2c(c1)[C@]13CCCC[C@@H]1[C@H](C2)N(C)CC3 [Dextromethorphan HBr],Cmax,"[3]; human, in vivo",0.028 µM
same,albumin production in iMPCCs,iMPCCs,minimally affected
same,urea production in iMPCCs,iMPCCs,minimally affected
COc1ccc2[nH]c([S+]([O-])Cc3ncc(C)c(OC)c3C)nc2c1 (centres unmarked) [omeprazole],induction of iMPCC CYP1A2 activity,CYP1A2; 4 days,dose-dependent manner
same,CYP1A2 fold induction in iMPCCs as % of values in PHH-MPCCs,CYP1A2; same dose and duration,~70%
NNC(=O)c1ccncc1 [Isoniazid],Cmax,[3]; total human plasma concentration,76.6 µM
same,toxicity call in iMPCCs / iHeps,iHeps in iMPCCs [4],toxic
same,TC50 in MPCCs Urea,[5],4.5796 mM
same,DILI Sev (DILI severity scores from the LTKB of the FDA),[6],8
same,Model predictions iCC (binary decision),iHeps in iCCs,−
same,toxicity call in iCCs,iHeps in iCCs,non-toxic
same,TC50 in MPCCs Albumin,iHeps in iMPCCs [7],6.6815 mM
